Data published in patent US20110311445A1, “DIAGNOSIS AND TREATMENT OF MYELOID AND LYMPHOID CELL CANCERS” (MORPHOTEK, INC., priority 2003, published 2011).

Tests used:
[1] = test system: myeloid and lymphoid cancer cells; experiment: Binding of chlorotoxin and binding-domain peptides to lymphoid cancer cells (FACS, streptavidin-fluorescein); details: general statement; FACS on Raji, Daudi, Molt-4 cells (FIG. 1, 2)
Method: Raji (Epstein et al. (1966) J. Natl. Cancer Inst. 37, 547-559) and Daudi (Klein et al. (1968) Cancer Res. 28 1300-1310) cells were used either unfixed or fixed with one percent glutaraldehyde. The Raji cell line (ATCC CCL-86) is a B lymphocyte cell line derived from a Burkitt's lymphoma of a person. The Daudi cell line (ATCC CCL-213) is a B lymphoblast cell line derived from person. Cells were incubated with chlorotoxin or the designated binding domain peptide (SEQ ID NO: 8 or 10), washed then incubated with streptavidin-fluorescein (strp-FL). After another wash, cells were analyzed using a FACS analyzer and the percent of positive staining cells determined (FIG. 1). Controls included untreated cells, cells incubated with streptavidin-fluorescein alone and cells incubated with negative peptide.
Molt-4 cells (Minowada et al. (1972) J. Natl. Cancer Inst. 49, 891-895) were used either unfixed or fixed with one percent glutaraldehyde. The Molt-4 cell line is a T lymphoblast cell line derived from a patient in relapse. Cells were incubated with chlorotoxin or the designated binding domain peptide (SEQ ID NO: 8 or 10), washed then incubated with streptavidin-fluorescein (strp-FL). After another wash, cells were analyzed using a FACS analyzer and the percent of positive staining cells determined (FIG. 2). […]

[2] = test system: Raji cell line; experiment: Cell proliferation / cytotoxicity, CCK-8, chlorotoxin (TM-601) with or without doxorubicin; assay type: cell-based; details: in combination with doxorubicin; FIG. 3
Method: (§1) A tissue culture method was optimized to test the effects of chlorotoxin (TM-601) in the presence or absence of doxorubicin on Raji (FIG. 3) and Daudi (FIG. 4) cell lines. Cells were plated on 96-well microtiter tissue culture plates at a density of approximately 1000-2000 cells per well, depending on the specific cell line. Cells were allowed to adhere twenty-four hours in a 37° C., humidified cell culture incubator supplied with five percent carbon dioxide. In order to achieve a dose-response curve for each drug in each cell line, cells were treated with decreasing concentrations doxorubicin for two to five days. Following treatment, the cytotoxic effect of doxorubicin was quantified using the Cell Counting Kit-8 (CCK-8) (Dojindo Inc.) according to the manufacturer's instructions. In brief, following the treatment period with doxorubicin, cells were incubated with CCK-8 reagent and incubated at 37° C. for one to four hours, depending on the specific cell type. After incubation, plates were read on a microplate reader at a wavelength of 490 nm.

[3] = test system: Daudi cell line; experiment: as above; assay type: cell-based; details: in combination with doxorubicin; FIG. 4
Method: as §1

Substance: chlorotoxin
- binding to myeloid and lymphoid cancer cells [1]: specifically and selectively bind
- effect on Raji cell proliferation [2]: close-dependent synergistic effects
- effect on Daudi cell proliferation [3]: close-dependent synergistic effects
